Test results: patent publication US8247211B2, “Glycopeptide antibiotics” (American Cyanamid Company, priority 2001, dated 2012)
Values after ≈ are worked out from the molar mass of the structure shown.

Legend:
[1] = system: Enterococcus sp.; test: In vitro antibacterial evaluation: minimum inhibitory concentration (MIC), broth dilution method; format: cell-based; details: strain GC 4557
How it was run: (§1)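 Broth dilution per NCCLS M7-A2 in Muller-Hinton II […], inoculum 5×10^5 CFU/mL, antibiotic tested over 64-0.06 μg/mL. MIC is taken as the lowest concentration that inhibits growth. Panel includes recent clinical isolates resistant to methicillin, penicillin and/or vancomycin.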

[2] = system: Escherichia coli; test: as above; format: cell-based; details: strain GC 4560
How it was run: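 An MIC is reported for each organism as the least concentration giving inhibition, using broth dilution over 64-0.06 μg/mL with a 5×10^5 CFU/mL inoculum.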

[3] = system: Streptococcus sp.; test: as above; format: cell-based
How it was run: as §1

[4] = system: Staphylococcus aureus-SMITH (GC 4543); test: Acute lethal infection in mice (ED50); format: in vivo; details: female CD-1 mice, intraperitoneal challenge, intravenous dose 30 min. after infection, 7 day survival ratios
Description: The therapeutic effects of glycopeptide antibiotics of Formula I are determined against acute lethal infections with S. aureus (strain Smith), a penicillin resistant strain of S. pneumoniae (strain GC 1894), and a vancomycin resistant strain of E. fecalis (strain GC 6189 and GC 2246). Female mice, CD-1 (Charles River Laboratories), 20 +1-2 gm, are challenged by intraperitoneal injection of sufficient bacteria (suspended in Trypticase Soy Broth or hog gastric mucin) to kill non-treated controls within 24-48 hr. Antibacterial agents, contained in 0.2 mL of saline or 5% dextrose solution, are administered intravenously 30 min. after infection. Five mice are treated at each dose level. The 7 day survival ratios from 3 separate tests are pooled for calculation of median effective dose (ED50).

## CC(c1ccccc1)C1NC(=O)CNC(=O)C(CO)NC(=O)C(C(O)C2CN(Cc3ccccc3)C(=NCc3ccccc3)N2C2OC(CO)C(O)C(O)C2O)NC(=O)C(C(O)C2CN(Cc3ccccc3)C(=NCc3ccccc3)N2Cc2ccccc2)NC(=O)C(Cc2ccc(OC3OC(CO)C(OC4OC(CO)C(O)C(O)C4O)C(O)C3O)cc2)NC1=O (stereo not drawn) [Example 62, Cyclo[glycyl-β-methylphenylalanyl-O-(4-O-hexopyranosylhexopyranosyl)tyrosyl-3-[1,3-dibenzyl-2-(benzylimino)imidazolidin-4-yl]seryl-3-[1-benzyl-2-(benzylimino)-3-hexopyranosylimidazolidin-4-yl]serylseryl]]
[1]
  MIC Enterococcus faecium (GC 4557): 64 µg/mL (≈ 36.7 µM)
[2]
  MIC Escherichia coli (GC 4560): 4 µg/mL (≈ 2.29 µM)
[3]; Streptococcus pneumoniae (GC 1894), broth dilution, 18 hours at 35° C.
  MIC Streptococcus pneumoniae (GC 1894): 64 µg/mL (≈ 36.7 µM)
[3]; strain GC 1894
  MIC Streptococcus pneumoniae (GC 1894): 64 µg/mL (≈ 36.7 µM)
[4]
  median effective dose (ED50), Staphylococcus aureus-SMITH (GC 4543): >8
